Laboratory results as given in ChEMBL document CHEMBL1201862, “PubChem BioAssay data set” (2004).
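Dose response: 5 concentrations. Exposure: 48 h. Format: 96-well plates. Endpoint: linear interpolation; highest concentration if not reached. At the GI50, growth is halved.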 Calls of active or inactive are those of the source. Rule as the data show it: active = GI50 up to about 1.1 µM and inactive = higher.

Legend:
Assay in all cases: NCI tumour cell line growth inhibition, 48 h
HOP-62 = test system: HOP-62
RPMI-8226 = test system: RPMI-8226
SF-539 = test system: SF-539
U-251 = test system: U-251
Hs-578T = test system: Hs-578T
SF-268 = test system: SF-268
TK-10 = test system: TK-10
NCI-H226 = test system: NCI-H226
HOP-92 = test system: HOP-92
OVCAR-5 = test system: OVCAR-5
UO-31 = test system: UO-31
MDA-MB-435 = test system: MDA-MB-435
SR = test system: SR
NCI/ADR-RES = test system: NCI/ADR-RES
M14 = test system: M14
LOX IMVI = test system: LOX IMVI
A498 = test system: A498
COLO 205 = test system: COLO 205
ACHN = test system: ACHN
CCRF-CEM = test system: CCRF-CEM
NCI-H460 = test system: NCI-H460
PC-3 = test system: PC-3
HCT-116 = test system: HCT-116
SNB-19 = test system: SNB-19
DU-145 = test system: DU-145
SNB-75 = test system: SNB-75
EKVX = test system: EKVX
SK-MEL-5 = test system: SK-MEL-5
NCI-H522 = test system: NCI-H522
T47D = test system: T47D
A549 = test system: A549
HCT-15 = test system: HCT-15
CAKI-1 = test system: CAKI-1
OVCAR-4 = test system: OVCAR-4
MDA-MB-231 = test system: MDA-MB-231
OVCAR-8 = test system: OVCAR-8
SK-MEL-28 = test system: SK-MEL-28
SF-295 = test system: SF-295
OVCAR-3 = test system: OVCAR-3
Malme-3M = test system: Malme-3M
BT-549 = test system: BT-549
786-0 = test system: 786-0
MOLT-4 = test system: MOLT-4
UACC-62 = test system: UACC-62
SW-620 = test system: SW-620
UACC-257 = test system: UACC-257
IGROV-1 = test system: IGROV-1
HL-60 = test system: HL-60
NCI-H23 = test system: NCI-H23
SK-MEL-2 = test system: SK-MEL-2
MCF7 = test system: MCF7
SK-OV-3 = test system: SK-OV-3
HCC 2998 = test system: HCC 2998
RXF 393 = test system: RXF 393
KM12 = test system: KM12
MDA-N = test system: MDA-N
SN12C = test system: SN12C
HT-29 = test system: HT-29
K562 = test system: K562

CC1=C(Br)C(=O)c2c(O)ccc(O)c2C1=O
GI50 (HOP-62): 0.849 µM (active) | GI50 (RPMI-8226): 0.278 µM (active) | GI50 (SF-539): 0.646 µM (active) | GI50 (U-251): 1.5 µM (inactive) | GI50 (Hs-578T): 2.81 µM (inactive) | GI50 (SF-268): 1.99 µM (inactive) | GI50 (TK-10): 1.26 µM (inactive) | GI50 (NCI-H226): 2.67 µM (inactive) | GI50 (HOP-92): 0.627 µM (active) | GI50 (OVCAR-5): 1.66 µM (inactive) | GI50 (UO-31): 0.625 µM (active) | GI50 (MDA-MB-435): 0.204 µM (active) | GI50 (SR): 0.207 µM (active) | GI50 (NCI/ADR-RES): 0.555 µM (active) | GI50 (M14): 0.431 µM (active) | GI50 (LOX IMVI): 0.55 µM (active) | GI50 (A498): 1.7 µM (inactive) | GI50 (COLO 205): 0.187 µM (active) | GI50 (ACHN): 0.869 µM (active) | GI50 (CCRF-CEM): 0.0183 µM (active) | GI50 (NCI-H460): 1.26 µM (inactive) | GI50 (PC-3): 1.41 µM (inactive) | GI50 (HCT-116): 0.303 µM (active) | GI50 (SNB-19): 1.72 µM (inactive) | GI50 (DU-145): 1.52 µM (inactive) | GI50 (SNB-75): 1.51 µM (inactive) | GI50 (EKVX): 2.37 µM (inactive) | GI50 (SK-MEL-5): 0.435 µM (active) | GI50 (NCI-H522): 0.153 µM (active) | GI50 (T47D): 0.412 µM (active) | GI50 (A549): 1.89 µM (inactive) | GI50 (HCT-15): 0.342 µM | GI50 (CAKI-1): 0.282 µM (active) | GI50 (OVCAR-4): 0.857 µM (active) | GI50 (MDA-MB-231): 1.26 µM (inactive) | GI50 (OVCAR-8): 0.481 µM (active) | GI50 (SK-MEL-28): 0.875 µM (active) | GI50 (SF-295): 1.67 µM (inactive) | GI50 (OVCAR-3): 0.74 µM (active) | GI50 (Malme-3M): 0.295 µM (active) | GI50 (BT-549): 0.71 µM (active) | GI50 (786-0): 0.19 µM (active) | GI50 (MOLT-4): 0.0258 µM (active) | GI50 (UACC-62): 0.71 µM (active) | GI50 (SW-620): 0.163 µM (active) | GI50 (UACC-257): 1.13 µM (inactive) | GI50 (IGROV-1): 1.59 µM (inactive) | GI50 (HL-60): 0.0306 µM (active) | GI50 (NCI-H23): 0.938 µM (active) | GI50 (SK-MEL-2): 5.83 µM (inactive) | GI50 (MCF7): 0.182 µM (active) | GI50 (SK-OV-3): 1.85 µM (inactive) | GI50 (HCC 2998): 1.75 µM (inactive) | GI50 (RXF 393): 1.42 µM (inactive) | GI50 (KM12): 1.57 µM (inactive) | GI50 (MDA-N): 0.251 µM (active) | GI50 (SN12C): 1.38 µM (inactive) | GI50 (HT-29): 0.336 µM (active) | GI50 (K562): 0.133 µM (active)

Cc1ccc(/N=N/c2ccc(O)c(CN(C)C)c2)cc1C
GI50 (HOP-62): 15.5 µM (inactive) | GI50 (RPMI-8226): 26.5 µM (inactive) | GI50 (SF-539): 19.5 µM (inactive) | GI50 (U-251): 34.6 µM (inactive) | GI50 (Hs-578T): 16.4 µM (inactive) | GI50 (SF-268): 27.9 µM (inactive) | GI50 (TK-10): 16.1 µM (inactive) | GI50 (NCI-H226): 26.9 µM (inactive) | GI50 (HOP-92): 26.8 µM (inactive) | GI50 (OVCAR-5): 31.8 µM (inactive) | GI50 (UO-31): 8.3 µM (inactive) | GI50 (MDA-MB-435): 18.7 µM (inactive) | GI50 (SR): 27.2 µM (inactive) | GI50 (NCI/ADR-RES): 16 µM (inactive) | GI50 (M14): 33 µM (inactive) | GI50 (LOX IMVI): 10.5 µM (inactive) | GI50 (A498): 22.3 µM (inactive) | GI50 (COLO 205): 11.9 µM (inactive) | GI50 (ACHN): 17.6 µM (inactive) | GI50 (CCRF-CEM): 24 µM (inactive) | GI50 (NCI-H460): 19.1 µM (inactive) | GI50 (PC-3): 40.9 µM (inactive) | GI50 (HCT-116): 36.3 µM (inactive) | GI50 (SNB-19): 34.2 µM (inactive) | GI50 (DU-145): 29.5 µM (inactive) | GI50 (SNB-75): 21.9 µM (inactive) | GI50 (EKVX): 20.6 µM (inactive) | GI50 (SK-MEL-5): 15.1 µM (inactive) | GI50 (NCI-H522): 10.6 µM (inactive) | GI50 (T47D): 14 µM (inactive) | GI50 (A549): 34.7 µM (inactive) | GI50 (HCT-15): 17.3 µM | GI50 (CAKI-1): 25.6 µM (inactive) | GI50 (OVCAR-4): 43.4 µM (inactive) | GI50 (MDA-MB-231): 16.3 µM (inactive) | GI50 (OVCAR-8): 37.2 µM (inactive) | GI50 (SK-MEL-28): 5.47 µM (inactive) | GI50 (SF-295): 40.7 µM (inactive) | GI50 (OVCAR-3): 15.6 µM (inactive) | GI50 (Malme-3M): 19.1 µM (inactive) | GI50 (BT-549): 25.6 µM (inactive) | GI50 (786-0): 34.4 µM (inactive) | GI50 (MOLT-4): 16.6 µM (inactive) | GI50 (UACC-62): 17.1 µM (inactive) | GI50 (SW-620): 33.6 µM (inactive) | GI50 (UACC-257): 23.1 µM (inactive) | GI50 (IGROV-1): 21.3 µM (inactive) | GI50 (HL-60): 10.1 µM (inactive) | GI50 (NCI-H23): 70.3 µM (inactive) | GI50 (SK-MEL-2): 16.2 µM (inactive) | GI50 (MCF7): 35.3 µM (inactive) | GI50 (SK-OV-3): 45 µM (inactive) | GI50 (HCC 2998): 16.4 µM (inactive) | GI50 (RXF 393): 17.5 µM (inactive) | GI50 (KM12): 16.9 µM (inactive) | GI50 (MDA-N): 38.9 µM (inactive) | GI50 (SN12C): > 100 µM (inactive) | GI50 (HT-29): 18.4 µM (inactive) | GI50 (K562): 13.9 µM (inactive)

CCCCCCCC(=O)OC[n+]1cccc(-c2c(COC(=O)NC(C)C)c(COC(=O)NC(C)C)c3n2CCC3)c1
GI50 (HOP-62): > 63.1 µM (inactive) | GI50 (RPMI-8226): > 86.1 µM (inactive) | GI50 (SF-539): 33.7 µM (inactive) | GI50 (U-251): > 72.8 µM (inactive) | GI50 (Hs-578T): > 100 µM (inactive) | GI50 (SF-268): > 55.8 µM (inactive) | GI50 (TK-10): > 100 µM (inactive) | GI50 (NCI-H226): 97.5 µM (inactive) | GI50 (HOP-92): 44.8 µM (inactive) | GI50 (OVCAR-5): > 100 µM (inactive) | GI50 (UO-31): 62.8 µM (inactive) | GI50 (MDA-MB-435): > 100 µM (inactive) | GI50 (SR): 12.8 µM (inactive) | GI50 (NCI/ADR-RES): > 100 µM (inactive) | GI50 (M14): 98.2 µM (inactive) | GI50 (LOX IMVI): 60.3 µM (inactive) | GI50 (A498): 35.3 µM (inactive) | GI50 (COLO 205): > 87.7 µM (inactive) | GI50 (ACHN): 34 µM (inactive) | GI50 (CCRF-CEM): 21.2 µM (inactive) | GI50 (NCI-H460): 46.1 µM (inactive) | GI50 (PC-3): > 88.3 µM (inactive) | GI50 (HCT-116): 50 µM (inactive) | GI50 (SNB-19): > 100 µM (inactive) | GI50 (DU-145): > 83.9 µM (inactive) | GI50 (SNB-75): > 78 µM (inactive) | GI50 (EKVX): > 100 µM (inactive) | GI50 (SK-MEL-5): > 100 µM (inactive) | GI50 (NCI-H522): 40.4 µM (inactive) | GI50 (T47D): > 93.3 µM (inactive) | GI50 (A549): > 96.2 µM (inactive) | GI50 (HCT-15): > 100 µM | GI50 (CAKI-1): 18.9 µM (inactive) | GI50 (OVCAR-4): > 100 µM (inactive) | GI50 (MDA-MB-231): > 100 µM (inactive) | GI50 (OVCAR-8): 82 µM (inactive) | GI50 (SK-MEL-28): > 100 µM (inactive) | GI50 (SF-295): > 84.1 µM (inactive) | GI50 (OVCAR-3): > 100 µM (inactive) | GI50 (Malme-3M): > 100 µM (inactive) | GI50 (BT-549): > 84.5 µM (inactive) | GI50 (786-0): 40 µM (inactive) | GI50 (MOLT-4): 20.1 µM (inactive) | GI50 (UACC-62): 38.1 µM (inactive) | GI50 (SW-620): > 50.5 µM (inactive) | GI50 (UACC-257): > 100 µM (inactive) | GI50 (IGROV-1): > 51.2 µM (inactive) | GI50 (HL-60): 24.3 µM (inactive) | GI50 (NCI-H23): 61.7 µM (inactive) | GI50 (SK-MEL-2): > 100 µM (inactive) | GI50 (MCF7): 45.6 µM (inactive) | GI50 (SK-OV-3): > 100 µM (inactive) | GI50 (HCC 2998): > 100 µM (inactive) | GI50 (RXF 393): 44.2 µM (inactive) | GI50 (KM12): > 100 µM (inactive) | GI50 (MDA-N): > 100 µM (inactive) | GI50 (SN12C): 48 µM (inactive) | GI50 (HT-29): > 100 µM (inactive) | GI50 (K562): 83.6 µM (inactive)
